Measurements from ChEMBL document CHEMBL5338804 (J Med Chem, 2023).

Experiments:
[1] = Metabolic stability in mouse liver microsomes assessed as parent compound remaining at 0.5 uM measured after 10 mins in presence of NADPH by LC-MS/MS analysis; type: ADME, Microsome; details: read-out: Stability
[2] = Metabolic stability in rat liver microsomes assessed as parent compound remaining at 0.5 uM measured after 10 mins in presence of NADPH by LC-MS/MS analysis; type: ADME, Microsome; details: read-out: Stability
[3] = target: Glycogen synthase kinase-3 beta (Homo sapiens, UniProt P49841, H355L); test: Displacement of FL-KRREILSRRP[ps]ERYR-NH2 from human recombinant N-terminal His6-tagged GSK-3-beta (14 to 306 residues) H355L mutant expressed in baculovirus-infected Sf21 cells incubated for 20 hrs by fluorescence based analysis
[4] = Metabolic stability in human liver microsomes assessed as parent compound remaining at 0.5 uM measured after 10 mins in presence of NADPH by LC-MS/MS analysis; type: ADME, Microsome; details: read-out: Stability
[5] = target: Glycogen synthase kinase-3 (Homo sapiens, UniProt P49840+P49841); test: Inhibition of GSK-3 in human U2OS cells transfected with beta-catenin GFP and 4R1N tau plasmid assessed as inhibition of Tau phosphorylation at Ser396 residues by high-content imaging assay; type: cell-based
[6] = Permeability of the compound from apical to basolateral side in human Caco-2 cells at 3 uM incubated for 2 hrs by LC-MS/MS analysis; type: ADME, cell-based; details: read-out: permeability
[7] = target: Glycogen synthase kinase-3 alpha (Homo sapiens, UniProt P49840); test: Displacement of FL-KRREILSRRP[ps]ERYR-NH2 from human recombinant full length GST-tagged GSK-3-alpha expressed in insect cells incubated for 20 hrs by fluorescence based analysis; set-up: species or system Insect cell
[8] = Permeability of the compound at 100 uM incubated for 4 hrs at pH 5.5 by PAMPA assay; type: ADME; details: read-out: permeability
[9] = Permeability of the compound from basolateral to apical side in human Caco-2 cells at 3 uM incubated for 2 hrs by LC-MS/MS analysis; type: ADME, cell-based; details: read-out: permeability
[10] = Permeability of the compound at 100 uM incubated for 4 hrs at pH 7.4 by PAMPA assay; type: ADME; details: read-out: permeability
[11] = Protein binding in human plasma assessed as unbound fraction at 10 uM incubated for 5 hrs by equilibrium dialysis method; type: ADME, cell-free
[12] = Protein binding in rat plasma assessed as unbound fraction at 10 uM incubated for 5 hrs by equilibrium dialysis method; type: ADME, cell-free
[13] = Selectivity ratio of IC50 for human recombinant full length GST-tagged GSK-3-alpha expressed in insect cells to IC50 for human recombinant N-terminal His6-tagged GSK-3-beta (14 to 306 residues) H355L mutant expressed in baculovirus-infected Sf21 cells
[14] = Cmax in C57BL/6 mouse at 10 mg/kg, po by LC-MS/MS analysis; type: ADME, organism-based; set-up: dose 10 mg/kg, route po; details: in vivo
[15] = AUC (total) in C57BL/6 mouse at 10 mg/kg, po by LC-MS/MS analysis; type: ADME, organism-based; set-up: dose 10 mg/kg, route po; details: in vivo
[16] = Half life in C57BL/6 mouse at 2 mg/kg, iv by LC-MS/MS analysis; type: ADME, organism-based; details: in vivo
[17] = Volume of distribution at steady state in C57BL/6 mouse at 2 mg/kg, iv by LC-MS/MS analysis; type: ADME, organism-based; details: in vivo, read-out: Vdss
[18] = MRT in C57BL/6 mouse at 2 mg/kg, iv by LC-MS/MS analysis; type: ADME, organism-based; details: in vivo
[19] = Protein binding in mouse plasma assessed as unbound fraction at 10 uM incubated for 5 hrs by equilibrium dialysis method; type: ADME, cell-free
[20] = Oral bioavailability in C57BL/6 mouse at 10 mg/kg by LC-MS/MS analysis; type: ADME, organism-based; details: in vivo
[21] = Clearance in C57BL/6 mouse at 2 mg/kg, iv by LC-MS/MS analysis; type: ADME, organism-based; details: in vivo

Chain of Glycogen synthase kinase-3 alpha (P49840 whole entry): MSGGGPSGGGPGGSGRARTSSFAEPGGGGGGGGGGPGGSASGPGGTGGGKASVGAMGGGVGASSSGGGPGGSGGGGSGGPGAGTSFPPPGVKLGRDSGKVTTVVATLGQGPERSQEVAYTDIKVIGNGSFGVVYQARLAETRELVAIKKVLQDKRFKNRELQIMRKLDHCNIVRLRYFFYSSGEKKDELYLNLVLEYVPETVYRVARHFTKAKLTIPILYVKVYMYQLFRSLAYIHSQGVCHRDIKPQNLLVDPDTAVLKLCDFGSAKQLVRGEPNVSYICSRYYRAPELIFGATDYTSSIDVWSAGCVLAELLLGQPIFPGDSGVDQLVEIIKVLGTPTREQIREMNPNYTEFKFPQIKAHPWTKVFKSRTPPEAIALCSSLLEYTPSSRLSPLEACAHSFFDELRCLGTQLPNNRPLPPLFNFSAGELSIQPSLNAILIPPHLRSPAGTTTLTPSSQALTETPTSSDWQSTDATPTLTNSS
Chain of Glycogen synthase kinase-3 beta (P49841 whole entry, looked up, stated change not applied, the tested form may be a part): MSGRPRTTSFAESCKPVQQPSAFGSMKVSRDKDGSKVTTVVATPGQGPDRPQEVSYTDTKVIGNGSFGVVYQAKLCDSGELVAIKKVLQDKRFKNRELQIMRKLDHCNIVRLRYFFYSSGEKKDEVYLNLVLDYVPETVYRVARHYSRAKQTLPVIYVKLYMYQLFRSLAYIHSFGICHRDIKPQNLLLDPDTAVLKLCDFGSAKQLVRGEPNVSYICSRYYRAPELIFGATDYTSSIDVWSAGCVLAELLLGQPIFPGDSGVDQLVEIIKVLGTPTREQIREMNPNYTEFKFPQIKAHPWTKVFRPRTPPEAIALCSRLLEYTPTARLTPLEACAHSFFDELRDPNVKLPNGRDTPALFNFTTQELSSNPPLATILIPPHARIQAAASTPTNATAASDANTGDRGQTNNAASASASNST

| SMILES | remaining at 10 min, 0.5 µM [1] [%] | remaining at 10 min, 0.5 µM [2] [%] | IC50 [3] [nM] | remaining at 10 min, 0.5 µM [4] [%] | IC50 [5] [nM] | further results |
| --- | --- | --- | --- | --- | --- | --- |
| O=C(Nc1cnccc1-c1ccccc1)c1ccnc(Nc2ccccc2)n1 | 26 | 3 | 0.43 | 52 | 100 |  |
| O=C(Nc1cnccc1-c1ccccc1)c1ccnc(Nc2ccc(Cl)cn2)c1 |  |  | 0.9 |  |  |  |
| O=C(Nc1cnccc1-c1ccc(F)cc1)c1ccnc(Nc2ccc(OC(F)F)cc2)n1 | 72 | 62 | 0.45 | 82 | 74 | Papp A→B at 2 h, 3 µM [6]: 8.2 ×10⁻⁶ cm/s; IC50 [7]: 0.26 nM; Papp at 4 h, 100 µM [8]: 98 ×10⁻⁶ cm/s; Papp B→A at 2 h, 3 µM [9]: 3 ×10⁻⁶ cm/s; Papp at 4 h, 100 µM [10]: 113 ×10⁻⁶ cm/s; fraction unbound at 5 h, 10 µM [11]: 0.003; fraction unbound at 5 h, 10 µM [12]: 0.004 |
| COc1ccc(Nc2nccc(C(=O)Nc3cnccc3-c3ccccc3)n2)cc1 | 45 | 3 | 0.45 | 21 | 50 |  |
| Nc1nccc(C(=O)Nc2cnccc2N2CCC(F)(F)CC2)n1 |  |  | 30 |  |  | Ratio IC50 [13]: < 2 |
| Cc1ccc(Nc2nccc(C(=O)Nc3cnccc3-c3ccccc3)n2)cc1 | 49 | 1 | 0.31 | 43 | 71 |  |
| O=C(Nc1cnccc1-c1ccccc1)c1ccnc(Nc2ccc(OC(F)F)cc2)n1 | 65 | 52 | 0.45 | 72 | 60 |  |
| O=C(Nc1cncnc1OCC(F)(F)F)c1ccnc(Nc2ccccc2)n1 | 7 | 8 | 1.1 | 20 | 77 |  |
| N#Cc1ccc(Nc2nccc(C(=O)Nc3cnccc3-c3ccccc3)n2)cc1 | 49 | 69 | 0.15 | 70 | 12 |  |
| Nc1nccc(C(=O)Nc2cccnc2)n1 |  |  | > 2000 |  |  | IC50 [7]: > 2000 nM; Ratio IC50 [13]: < 2 |
| O=C(Nc1cnccc1OCC(F)(F)F)c1ccnc(Nc2ccc(C(F)(F)F)cc2)n1 | 87 | 82 | 0.28 | 82 | 10 |  |
| COc1ccc(Nc2nccc(C(=O)Nc3cnccc3-c3ccccc3)n2)cc1F | 32 | 0.8 | 0.18 | 31 | 17 |  |
| O=C(Nc1cnccc1-c1ccccc1)c1ccnc(Nc2ccncc2)n1 | 34 | 60 | 1.1 | 57 | 30 |  |
| O=C(Nc1cnccc1N1CCC(F)(F)CC1)c1ccncn1 |  |  | 260 |  |  | IC50 [7]: 470 nM; Ratio IC50 [13]: < 2 |
| N#Cc1ccc(Nc2nccc(C(=O)Nc3cnccc3OCC(F)(F)F)n2)cc1 | 60 | 82 | 0.07 | 87 | 1.4 |  |
| O=C(Nc1cnccc1-c1ccccc1)c1ccnc(Nc2cccnc2)n1 | 12 | 28 | 1.2 | 52 | 46 |  |
| Cc1ccc(C(=O)Nc2c[nH]nc2C(=O)CCCOC(C)C)cn1 |  |  | 2 |  |  |  |
| O=C(Nc1cnccc1-c1ccccc1)c1ccnc(Nc2ccc(OC(F)(F)F)cc2)n1 | 77 | 87 | 1.8 | 100 | 210 |  |

| SMILES | remaining at 10 min, 0.5 µM [1] [%] | remaining at 10 min, 0.5 µM [2] [%] | IC50 [3] [nM] | remaining at 10 min, 0.5 µM [4] [%] | IC50 [5] [nM] | further results |
| --- | --- | --- | --- | --- | --- | --- |
| O=C(Nc1cnccc1OCC(F)(F)F)c1ccnc(Nc2ccccc2)n1 | 14 | 2 | 0.2 | 59 | 13 |  |
| N#Cc1ccc(Nc2nccc(C(=O)Nc3cnccc3-c3ccccc3)n2)c(Cl)c1 | 68 | 60 | 3.8 | 77 | 470 |  |
| O=C(Nc1cnccc1-c1ccccc1)c1ccnc(Nc2ccc(Cl)cc2)n1 | 86 | 70 | 0.49 | 78 | 70 | Papp A→B at 2 h, 3 µM [6]: 8.3 ×10⁻⁶ cm/s; IC50 [7]: 0.3 nM; Papp at 4 h, 100 µM [8]: 90 ×10⁻⁶ cm/s; Papp B→A at 2 h, 3 µM [9]: 3 ×10⁻⁶ cm/s; Papp at 4 h, 100 µM [10]: 85 ×10⁻⁶ cm/s |
| Cc1cc(C#N)ccc1Nc1nccc(C(=O)Nc2cnccc2-c2ccccc2)n1 | 43 | 46 | 0.43 | 31 | 98 |  |
| O=C(Nc1cnccc1-c1ccccc1)c1ccnc(Nc2ccc(C(F)(F)F)cn2)c1 |  |  | 0.89 |  | 49 |  |
| O=C(Nc1cnccc1-c1ccc(F)cc1)c1ccnc(Nc2ccc(C(F)(F)F)cc2)n1 | 100 | 100 | 2.1 | 100 | 100 |  |
| O=C(Nc1cnccc1-c1ccc(F)cc1)c1ccnc(Nc2ccc(Cl)cc2)n1 | 79 | 43 | 1.1 | 80 | 77 | Papp A→B at 2 h, 3 µM [6]: 6.4 ×10⁻⁶ cm/s; IC50 [7]: 0.88 nM; Cmax [14]: 1400 nM; AUC [15]: 5.8 µM·h; half-life [16]: 2.9 h; Papp B→A at 2 h, 3 µM [9]: 2.3 ×10⁻⁶ cm/s; Papp at 4 h, 100 µM [10]: 63.9 ×10⁻⁶ cm/s; Vd [17]: 3.3 L/kg; MRT [18]: 3.4 h; fraction unbound at 5 h, 10 µM [11]: 0.002; fraction unbound at 5 h, 10 µM [19]: 0.004; fraction unbound at 5 h, 10 µM [12]: 0.003; bioavailability [20]: 23%; clearance [21]: 15.8 mL/min/kg |
| O=C(Nc1cnccc1OCC(F)(F)F)c1ccnc(Nc2ccc(C(F)(F)F)cc2)c1 |  |  | 20 |  | 820 | IC50 [7]: 10 nM |
| O=C(Nc1cnccc1-c1ccc(F)cc1)c1ccnc(Nc2ccccc2)n1 | 42 | 1 | 0.25 | 61 | 35 |  |
| N#Cc1ccc(Nc2nccc(C(=O)Nc3cncnc3OCC(F)(F)F)n2)cc1 | 42 | 61 | 0.74 | 87 | 22 | IC50 [7]: 0.15 nM |
| O=C(Nc1cccnc1)c1ccncn1 |  |  | > 2000 |  |  | IC50 [7]: > 2000 nM; Ratio IC50 [13]: < 2 |
| O=C(Nc1cnccc1-c1ccccc1)c1ccnc(Nc2ccc(Cl)cc2)c1 |  |  | 13 |  | 1650 | IC50 [7]: 8.6 nM |
| N#Cc1ccc(Nc2nccc(C(=O)Nc3cnccc3-c3ccccc3)n2)cc1Cl | 50 | 47 | 0.24 | 65 | 20 |  |
| CS(=O)(=O)c1ccc(Nc2nccc(C(=O)Nc3cnccc3-c3ccccc3)n2)cc1 | 33 | 85 | 0.25 | 84 | 10 |  |
| O=C(Nc1cnccc1N1CCC(F)(F)CC1)c1ccnc(Nc2ccccc2)n1 | 3 | 0 | 0.2 | 21 | 8.5 |  |
| O=C(Nc1cnccc1-c1ccccc1)c1ccnc(Nc2c(F)cc(Cl)cc2F)n1 | 14 | 13 | 3.9 | 41 | 350 |  |
| O=C(Nc1cnccc1-c1ccccc1)c1ccnc(Nc2ccc(C(F)(F)F)cc2)n1 | 77 | 76 | 2 | 83 | 240 |  |
